In US12509431B2, “1,4-dihydroquinazolinone compounds and uses thereof” (Edgewise Therapeutics, Inc., priority 2022, dated 2025):

What was measured:
Format in all cases: biochemical
Details in all cases: Table 8
[1] = biological target: T1, Porcine Ventricle myofibrils (left ventricle of Yucatan minipigs) (Sus scrofa, UniProt P79293); assay: Myofibril ATPase assay (PK/LDH NADH-coupled), ventricle myofibrils
T1 construct: Myofibrils from porcine cardiac muscle was isolated from the left ventricle of Yucatan minipigs; tissue Exemplar Genetics; host or cells: left ventricle of Yucatan minipigs
T1 sequence (P79293 whole entry): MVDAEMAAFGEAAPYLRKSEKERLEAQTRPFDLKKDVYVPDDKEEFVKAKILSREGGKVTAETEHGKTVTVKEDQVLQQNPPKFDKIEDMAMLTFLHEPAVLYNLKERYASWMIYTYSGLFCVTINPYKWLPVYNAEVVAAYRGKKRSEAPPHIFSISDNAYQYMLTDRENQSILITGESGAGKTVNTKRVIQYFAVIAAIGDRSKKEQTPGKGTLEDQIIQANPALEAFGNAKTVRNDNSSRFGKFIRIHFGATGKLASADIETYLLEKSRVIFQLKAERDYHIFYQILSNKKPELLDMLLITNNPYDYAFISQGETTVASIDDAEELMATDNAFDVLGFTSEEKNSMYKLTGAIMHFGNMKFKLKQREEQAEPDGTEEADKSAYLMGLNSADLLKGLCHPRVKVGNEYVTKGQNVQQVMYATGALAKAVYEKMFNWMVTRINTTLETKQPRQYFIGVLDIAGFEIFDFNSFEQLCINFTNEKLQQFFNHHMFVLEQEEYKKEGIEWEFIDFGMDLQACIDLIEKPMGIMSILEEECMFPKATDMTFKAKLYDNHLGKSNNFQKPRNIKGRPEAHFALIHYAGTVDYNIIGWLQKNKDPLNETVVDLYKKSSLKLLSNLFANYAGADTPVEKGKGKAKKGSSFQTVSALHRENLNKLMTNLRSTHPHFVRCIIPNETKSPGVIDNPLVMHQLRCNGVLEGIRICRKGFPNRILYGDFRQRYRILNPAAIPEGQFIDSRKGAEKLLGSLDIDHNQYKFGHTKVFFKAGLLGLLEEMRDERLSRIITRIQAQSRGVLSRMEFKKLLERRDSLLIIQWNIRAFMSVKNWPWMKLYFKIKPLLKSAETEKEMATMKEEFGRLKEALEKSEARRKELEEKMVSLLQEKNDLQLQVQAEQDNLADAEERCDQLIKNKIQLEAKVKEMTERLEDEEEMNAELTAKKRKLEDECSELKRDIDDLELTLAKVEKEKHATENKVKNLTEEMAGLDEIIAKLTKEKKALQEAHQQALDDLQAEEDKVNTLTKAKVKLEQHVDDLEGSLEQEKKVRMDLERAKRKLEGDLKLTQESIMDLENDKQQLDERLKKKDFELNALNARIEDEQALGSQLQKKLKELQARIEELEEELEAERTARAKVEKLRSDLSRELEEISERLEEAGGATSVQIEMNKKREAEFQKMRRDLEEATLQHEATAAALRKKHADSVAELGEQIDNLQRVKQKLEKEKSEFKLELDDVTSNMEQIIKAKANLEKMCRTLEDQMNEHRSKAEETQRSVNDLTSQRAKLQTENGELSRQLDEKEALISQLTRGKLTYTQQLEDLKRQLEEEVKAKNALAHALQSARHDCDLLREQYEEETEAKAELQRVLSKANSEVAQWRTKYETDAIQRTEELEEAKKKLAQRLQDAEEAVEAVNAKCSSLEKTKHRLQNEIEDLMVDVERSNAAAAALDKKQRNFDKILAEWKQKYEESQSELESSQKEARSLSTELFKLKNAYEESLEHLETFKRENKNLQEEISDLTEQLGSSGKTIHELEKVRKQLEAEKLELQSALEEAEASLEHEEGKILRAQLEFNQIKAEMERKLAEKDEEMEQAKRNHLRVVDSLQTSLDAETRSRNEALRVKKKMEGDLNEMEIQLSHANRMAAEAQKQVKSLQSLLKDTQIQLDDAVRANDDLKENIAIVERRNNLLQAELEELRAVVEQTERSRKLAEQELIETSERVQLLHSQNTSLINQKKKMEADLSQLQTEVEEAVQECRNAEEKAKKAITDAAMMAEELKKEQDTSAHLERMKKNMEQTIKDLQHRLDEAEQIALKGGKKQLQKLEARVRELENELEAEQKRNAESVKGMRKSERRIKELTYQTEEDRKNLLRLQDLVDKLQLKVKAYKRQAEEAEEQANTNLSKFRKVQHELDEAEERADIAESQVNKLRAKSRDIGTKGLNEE
Procedure, shortened: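 Yucatan minipig left-ventricle myofibrils; ATPase measured by PK/LDH-coupled NADH loss at 340 nm, read every 1.5-2 min for 75 min. Slopes normalized to vehicle (100%) and fit to 4-parameter logistic model; EC25 and, for inhibitors, EC50 calculated.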

Porcine Atria myofibrils = assay: Myofibril ATPase assay (PK/LDH NADH-coupled), atria myofibrils
Procedure, shortened: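 Porcine atrial myofibril ATPase followed via PK/LDH-coupled NADH depletion, absorbance at 340 nm read every 1.5-2 min over 75 min. Slopes (mAU/min) normalized to vehicle as 100% and fit to a 4-parameter logistic; EC25% derived, plus EC50% for inhibitors.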

[2] = system: Rabbit Skeletal myofibrils (rabbit psoas muscle); assay: Myofibril ATPase assay (PK/LDH NADH-coupled), skeletal myofibrils
Procedure, shortened: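 Rabbit psoas myofibrils in pCa (PIPES/CaCl2/EGTA, pH 7.0) buffer; ADP coupled via PK/LDH to NADH loss, read at 340 nm every 1.5–2 min for 75 min. Slopes normalized to vehicle (100%) and fit to 4-parameter logistic for EC25, plus EC50 for inhibitors.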

SMILES	Porcine Ventricle IC25 [1] [nM]	Porcine Atria IC25 (Porcine Atria myofibrils) [nM]	Rabbit Psoas IC25 [2] [nM]
C[C@H](NC(=O)CN1Cc2c(ccc(F)c2F)NC1=O)c1ncc(-n2ncnn2)cc1F [Compound B265]	5360	1880	100000
C[C@@H](NC(=O)C(C)(C)N1Cc2c(ccc(F)c2F)NC1=O)c1ncc(C#N)cc1F [Compound B266]	1380	50	950
C[C@H](NC(=O)C(C)(C)N1Cc2c(ccc(F)c2F)NC1=O)c1ncc(C#N)cc1F [Compound B267]	3960	180	18400
C[C@@H](NC(=O)C1(N2Cc3c(ccc(F)c3F)NC2=O)CC1)c1ncc(C#N)cc1F [Compound B268]	3060	110	6910
C[C@@H](NC(=O)CN1Cc2c(ccc(F)c2F)NC1=O)c1cc2cccnc2cn1 [Compound B270]	100000	1180	100000
C[C@H](NC(=O)CN1Cc2c(ccc(F)c2F)NC1=O)c1cc2cccnc2cn1 [Compound B271]	55130	100000	100000
C[C@@H](NC(=O)[C@H](C)N1Cc2c(ccc(F)c2F)NC1=O)c1ncc(C#N)cc1F [Compound B272]	750	50	740
C[C@H](C(=O)N[C@H](C)c1ncc(C#N)cc1F)N1Cc2c(ccc(F)c2F)NC1=O [Compound B273]	22580	1960	1570
C[C@@H](NC(=O)CN1Cc2c(ccc(F)c2F)NC1=O)c1ccc2cnccc2n1 [Compound B274]	95970	1100	100000
C[C@H](NC(=O)CN1Cc2c(ccc(F)c2F)NC1=O)c1ccc2cnccc2n1 [Compound B275]	100000	8270	100000
C[C@@H](NC(=O)CN1Cc2cc3c(cc2NC1=O)OCCO3)c1ncc(C#N)cc1F [Compound B276]	23740	100000	30800
C[C@H](NC(=O)CN1Cc2cc3c(cc2NC1=O)OCCO3)c1ncc(C#N)cc1F [Compound B277]	73200	77490	100000
C[C@H](NC(=O)[C@H](C)N1Cc2c(ccc(F)c2F)NC1=O)c1ncc(C#N)cc1F [Compound B278]	90	30	30
C[C@H](NC(=O)[C@@H](C)N1Cc2c(ccc(F)c2F)NC1=O)c1ncc(C#N)cc1F [Compound B279]	700	110	570
C[C@@H](NC(=O)CN1Cc2c(ccc(F)c2F)NC1=O)c1ncc(C#N)s1 [Compound B280]	6550	610	1080
C[C@@H](NC(=O)CN1Cc2c(ccc(F)c2F)NC1=O)c1ncc(C2COC2)cn1 [Compound B282]	100000	86130	100000
C[C@H](NC(=O)CN1Cc2c(ccc(F)c2F)NC1=O)c1ncc(C2COC2)cn1 [Compound B283]	6490	900	100000
C[C@@H](NC(=O)CN1Cc2c(ccc(F)c2F)NC1=O)c1cc2ccccc2cn1 [Compound B284]	440	870	100000
C[C@H](NC(=O)CN1Cc2c(ccc(F)c2F)NC1=O)c1cc2ccccc2cn1 [Compound B285]	100000	100000	100000
C[C@@H](NC(=O)CN1Cc2c(ccc(F)c2F)NC1=O)c1ccc2ncccc2n1 [Compound B286]	8790	550	40680
C[C@H](NC(=O)CN1Cc2c(ccc(F)c2F)NC1=O)c1ccc2ncccc2n1 [Compound B287]	100000	75650	100000
C[C@@H](NC(=O)CN1Cc2c(ccc(F)c2F)NC1=O)c1ccc2ccccc2n1 [Compound B288]	5290	260	3980

SMILES	Porcine Ventricle IC25 [1] [nM]	Porcine Atria IC25 (Porcine Atria myofibrils) [nM]	Rabbit Psoas IC25 [2] [nM]
C[C@H](NC(=O)CN1Cc2c(ccc(F)c2F)NC1=O)c1ccc2ccccc2n1 [Compound B289]	100000	100000	100000
C[C@@H](NC(=O)CN1Cc2c(ccc(F)c2F)NC1=O)c1ncc(Br)cc1F [Compound B292]	540	160	420
N#Cc1cnc2c(c1)CC[C@H]2NC(=O)CN1C(=O)Nc2ccc(F)cc2C12CC2 [Compound B294]	39990	46590	1830
N#Cc1cnc2c(c1)CC[C@@H]2NC(=O)CN1C(=O)Nc2ccc(F)cc2C12CC2 [Compound B295]	350	250	170
O=C(CN1C(=O)Nc2ccc(F)c(F)c2C12CC2)N[C@@H]1COc2cc(F)cnc21 [Compound B296]	390	70	60
Cc1cccc2c1C1(CC1)N(CC(=O)N[C@@H]1COc3cc(C#N)cnc31)C(=O)N2 [Compound B299]	100000	67410	63220
Cc1cccc2c1C1(CC1)N(CC(=O)N[C@H]1COc3cc(C#N)cnc31)C(=O)N2 [Compound B300]	1420	1420	1390
Cc1cccc2c1C1(CC1)N(CC(=O)N[C@H](C)c1cnc(C#N)cn1)C(=O)N2 [Compound B301]	14900	4280	2520
Cc1cccc2c1C1(CC1)N(CC(=O)N[C@@H](C)c1cnc(C#N)cn1)C(=O)N2 [Compound B302]	2850	1080	5650
N#Cc1cc(F)c2c(c1)OC[C@H]2NC(=O)CN1C(=O)Nc2cccc(C#N)c2C12CC2 [Compound B303]	90	80	20
N#Cc1cc(F)c2c(c1)OC[C@@H]2NC(=O)CN1C(=O)Nc2cccc(C#N)c2C12CC2 [Compound B304]	3960	1120	1050
C[C@@H](NC(=O)CN1C(=O)Nc2ccc(F)c(F)c2C12CC2)c1ncc(C#N)cc1Cl [Compound B306]	180	100	610
C[C@H](NC(=O)CN1C(=O)Nc2ccc(F)c(F)c2C12CC2)c1ncc(C#N)cc1Cl [Compound B307]	70	50	20
Cc1cccc2c1C1(CC1)N(CC(=O)N[C@H](C)c1ncc(C#N)nc1C)C(=O)N2 [Compound B308]	100000	20750	100000
Cc1cccc2c1C1(CC1)N(CC(=O)N[C@@H](C)c1ncc(C#N)nc1C)C(=O)N2 [Compound B309]	10570	10360	2230
N#Cc1cnc2c(c1)OC[C@H]2NC(=O)CN1C(=O)Nc2cccc(C#N)c2C12CC2 [Compound B310]	370	160	80
N#Cc1cnc2c(c1)OC[C@@H]2NC(=O)CN1C(=O)Nc2cccc(C#N)c2C12CC2 [Compound B311]	86790	100000	100000
Cc1cccc2c1C1(CC1)N(CC(=O)N[C@@H]1COc3cc(C#N)cc(F)c31)C(=O)N2 [Compound B312]	180	100	50
Cc1cccc2c1C1(CC1)N(CC(=O)N[C@H]1COc3cc(C#N)cc(F)c31)C(=O)N2 [Compound B313]	3910	2290	9120
C[C@@H](NC(=O)CN1C(=O)Nc2ccc(F)c(F)c2C12CC2)c1cnc(C#N)cn1 [Compound B314]	500	40	120
C[C@H](NC(=O)CN1C(=O)Nc2ccc(F)c(F)c2C12CC2)c1cnc(C#N)cn1 [Compound B315]	90	50	20
